This note sets out measurements from patent US20260184687A1, “DIHYDROINDENE DERIVATIVES AS MALT1 INHIBITORS” (C4X Discovery Limited, priority 2022, published 2026).

Assay [1] concerns IL-2 release from stimulated Jurkat cells. Description: Human IL-2 Release Phenotypic Assay (Assay 3). As to conditions: Jurkat cells (clone E6-1), 200 ng/mL PMA + 300 ng/mL ionomycin, IL-2 by ELISA. The class given is cell-based. The procedure, abridged: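 IC50 values were fitted by 4-parameter non-linear regression to IL-2 release from Jurkat E6-1 cells. Those cells were stimulated for 48 h with PMA (200 ng/mL) plus ionomycin (300 ng/mL) after a 30-min compound pre-incubation at half-log doses in 0.5% DMSO. Cells had been plated at 50 000/well overnight at 37° C.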

Assay [2] addresses MALT1-GS-Ub (6-His-hMALT-1 residues 339-715 fused to ubiquitin) (Homo sapiens, UniProt Q9UDY8). The assay can be described thus: biochemical.
A further assay concerns the target T1, FL hMALT1 enzyme (Homo sapiens, UniProt Q9UDY8).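 Also: Cell-free protease assay: enzyme preincubated with compound 30 min at room temperature, then cleavage of fluorogenic Ac-LVSR-AMC substrate (100 µM) tracked by fluorescence (ex 360/em 460 nm).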
T1 sequence (Q9UDY8 1-824): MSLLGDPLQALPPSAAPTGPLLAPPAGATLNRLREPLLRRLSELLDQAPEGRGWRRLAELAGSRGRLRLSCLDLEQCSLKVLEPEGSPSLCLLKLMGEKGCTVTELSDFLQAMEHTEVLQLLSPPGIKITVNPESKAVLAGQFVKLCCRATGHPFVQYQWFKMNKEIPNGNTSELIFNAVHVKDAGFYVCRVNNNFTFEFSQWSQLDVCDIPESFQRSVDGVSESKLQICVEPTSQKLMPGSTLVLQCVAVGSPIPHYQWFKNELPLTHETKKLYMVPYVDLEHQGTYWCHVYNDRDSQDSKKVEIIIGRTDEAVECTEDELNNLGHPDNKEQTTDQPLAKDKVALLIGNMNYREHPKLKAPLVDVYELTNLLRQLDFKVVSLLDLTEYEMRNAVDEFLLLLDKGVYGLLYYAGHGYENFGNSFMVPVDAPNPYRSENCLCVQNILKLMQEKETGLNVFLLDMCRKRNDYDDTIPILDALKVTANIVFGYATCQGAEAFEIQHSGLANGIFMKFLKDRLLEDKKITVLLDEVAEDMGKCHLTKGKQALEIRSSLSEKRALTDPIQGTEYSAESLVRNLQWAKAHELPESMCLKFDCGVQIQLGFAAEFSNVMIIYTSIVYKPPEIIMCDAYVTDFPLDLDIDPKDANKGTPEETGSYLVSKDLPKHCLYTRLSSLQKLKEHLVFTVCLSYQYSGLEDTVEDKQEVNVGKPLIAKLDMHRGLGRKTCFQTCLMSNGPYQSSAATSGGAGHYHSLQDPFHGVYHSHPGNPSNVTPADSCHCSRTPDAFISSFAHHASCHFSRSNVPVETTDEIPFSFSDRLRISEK
The assay can be described thus: biochemical.

Broadly, the IC50 is the concentration that inhibits the measured activity by half.

Sequence of MALT1-GS-Ub (6-His-hMALT-1 residues 339-715 fused to ubiquitin) (Q9UDY8 with tags, fused parts or gaps limits assumed): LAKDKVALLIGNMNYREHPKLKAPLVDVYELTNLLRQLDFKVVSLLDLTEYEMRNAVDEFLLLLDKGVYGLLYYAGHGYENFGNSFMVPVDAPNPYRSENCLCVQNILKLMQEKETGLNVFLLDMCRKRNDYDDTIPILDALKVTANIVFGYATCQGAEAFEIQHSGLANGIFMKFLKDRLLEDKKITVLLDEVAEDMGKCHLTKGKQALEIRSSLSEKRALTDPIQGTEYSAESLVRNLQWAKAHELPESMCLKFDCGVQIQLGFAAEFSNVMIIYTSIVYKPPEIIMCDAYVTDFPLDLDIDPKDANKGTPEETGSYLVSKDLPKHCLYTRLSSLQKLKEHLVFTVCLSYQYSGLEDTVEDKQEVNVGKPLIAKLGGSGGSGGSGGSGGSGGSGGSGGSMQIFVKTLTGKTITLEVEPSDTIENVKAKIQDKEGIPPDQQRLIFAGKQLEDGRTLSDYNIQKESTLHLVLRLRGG

Consider `COc1ccc2c(c1)CC(Nc1ccc([C@H](N(C)C(=O)C3CCS(=O)(=O)CC3)C(F)(F)F)cc1)C2` (single isomer, unassigned) [Example 54], for which the IC50 stood at 2.11 µM in assay [1] (Homo sapiens, Jurkat, 48 h) and 0.33 µM in assay [2].

For the compound `CN(C(=O)CCCC(=O)O)[C@@H](c1ccc(NC2Cc3ccccc3C2(C)C)cc1)C(F)(F)F` (single isomer, unassigned) [Example 50], the IC50 in assay [1] (48 hours) came out at 2.94 µM; in assay [2] it was 0.12 µM.

Turning to `CNS(=O)(=O)CCC(=O)N(C)[C@@H](c1ccc(NC2Cc3ccccc3C2(C)C)cc1)C(F)(F)F` (single isomer, unassigned) [Example 61], the IC50 came out at 0.84 µM in assay [1] (48 hours) and 0.18 µM in assay [2].

For `CN(C(=O)CCCC(=O)O)[C@@H](c1ccc(NC2Cc3ccccc3C2(C)C)cc1)C(F)(F)F` (single isomer, unassigned) [Example 49], the IC50 in assay [1] (Homo sapiens, Jurkat, 48 h) amounted to 4.69 µM; in assay [2], 0.26 µM.

For `CN(C(=O)C1CNC1)C(c1ccc(NC2Cc3ccccc3C2(C)C)nc1)C(F)(F)F` (single isomer, unassigned) [Example 89, N-(1-(6-((1,1-Dimethyl-2,3-dihydro-1H-inden-2-yl)amino)pyridin-3-yl)-2,2,2-trifluoroethyl)-N-methylazetidine-3-carboxamide], the IC50 against FL hMALT1 enzyme was over 3 µM; in assay [2], 6.86 µM.

On to `CNS(=O)(=O)CCC(=O)N(C)[C@@H](c1ccc(NC2Cc3ccccc3C2(C)C)cc1)C(F)(F)F` (single isomer, unassigned) [Example 62], for which the IC50 in assay [1] (48 hours) worked out at 2.12 µM; in assay [2], 0.17 µM.

Regarding `CN(C(=O)c1cc[nH]c(=O)c1)C(c1ccc(NC2Cc3ccccc3C2(C)C)cn1)C(F)(F)F` (single isomer, unassigned) [Example 97, N-(1-(5-((1,1-Dimethyl-2,3-dihydro-1H-inden-2-yl)amino)pyridin-2-yl)-2,2,2-trifluoroethyl)-N-methyl-2-oxo-1,2-dihydropyridine-4-carboxamide], the IC50 is over 3 µM at FL hMALT1 enzyme and 16 µM in assay [2].

In the case of `CN(C(=O)CCC(=O)O)[C@@H](c1ccc(NC2Cc3ccccc3C2(C)C)cc1)C(F)(F)F` (single isomer, unassigned) [Example 52], the IC50 turned out to be 9.51 µM in assay [1] (Homo sapiens, Jurkat, 48 h) and 0.26 µM in assay [2].

In the case of `CN1CC(C(=O)N(C)C(c2ccc(NC3Cc4ccccc4C3(C)C)nc2)C(F)(F)F)C1` (single isomer, unassigned) [Example 94, N-(1-(6-((1,1-Dimethyl-2,3-dihydro-1H-inden-2-yl)amino)pyridin-3-yl)-2,2,2-trifluoroethyl)-N,1-dimethylazetidine-3-carboxamide], the concentration for half-maximal inhibition (IC50) was over 3 µM against FL hMALT1 enzyme and 17 µM in assay [2].

As to `CN1CC(C(=O)N(C)C(c2ccc(NC3Cc4ccccc4C3(C)C)cn2)C(F)(F)F)C1` (single isomer, unassigned) [Example 91, N-(1-(5-((1,1-Dimethyl-2,3-dihydro-1H-inden-2-yl)amino)pyridin-2-yl)-2,2,2-trifluoroethyl)-N,1-dimethylazetidine-3-carboxamide], the IC50 is over 3 µM on FL hMALT1 enzyme and 12 µM in assay [2].

As for `CN(C(=O)CCC(=O)O)[C@@H](c1ccc(NC2Cc3ccccc3C2(C)C)cc1)C(F)(F)F` (single isomer, unassigned) [Example 53], the values for the IC50 in assay [1] (48 hours) and in assay [2] were 7.29 µM and 0.17 µM, respectively.

Consider `CN(C(=O)C1CNC1)C(c1ccc(NC2Cc3ccccc3C2(C)C)cn1)C(F)(F)F` (single isomer, unassigned) [Example 86, N-(1-(5-((1,1-Dimethyl-2,3-dihydro-1H-inden-2-yl)amino)pyridin-2-yl)-2,2,2-trifluoroethyl)-N-methylazetidine-3-carboxamide], for which the values for the IC50 (against FL hMALT1 enzyme; in assay [2]) were over 3 µM and 11 µM, respectively.

Take `CN(C(=O)C1CNC1)C(c1ccc(NC2Cc3ccccc3C2(C)C)cn1)C(F)(F)F` (single isomer, unassigned) [Example 83, N-(1-(5-((1,1-Dimethyl-2,3-dihydro-1H-inden-2-yl)amino)pyridin-2-yl)-2,2,2-trifluoroethyl)-N-methylazetidine-3-carboxamide]: the figures for the IC50 (against FL hMALT1 enzyme; in assay [2]) were over 3 µM and 16 µM, respectively.
